Values quoted from earlier work in patent publication US5616615A, “Enaminone esters” (priority 1995, dated 1997).

Settings: Kase et al., Jap. J. Pharmacol. 1974; cited from earlier work

| Structure (SMILES) | pharmacological actions |
| --- | --- |
| CC1(C)CC(=O)C(CN2CCCCC2)=C(Nc2ccccc2Cl)C1 [MK 1-203, 5,5-dimethyl-3-(o-chloro)phenylamino-2-(N-piperidinylmethyl)cyclohex-2-ene-1-one] | potent analgesics with morphine-like, as well as anticonvulsant and papaverine-like, actions |
| COc1cccc(C2=C(CN(C)CCc3ccccc3)C(=O)CC(C)(C)C2)c1 [MK 1-907, 5,5-dimethyl-3-(m-methoxy)phenyl-2-N-methyl-N-phenethylaminomethylcyclohex-2-ene-1-one] | potent analgesics with morphine-like, as well as anticonvulsant and papaverine-like, actions |
